Common to all, as to assay type: in vivo, human
Assay [1] has as its system type 2 diabetic patient with diabetes related kidney disease. Description: Case report: diabetes related kidney disease (proteinuria) treated with the subject method. As to conditions: before treatment 1500 milligrams of protein during 24 hours, rising 500 milligrams/24 hours/year; 5 years of treatment. On the procedure:
An older type 2 diabetic was exercising and had excellent circulating glucose control under intense insulin therapy including 3-4 injections per day of subcutaneous insulin. Even so, their diabetes related kidney disease had progressed to the point where they were discharging 1500 milligrams of protein during a 24-hour period and the rate of increase was 500 milligrams/24 hours/year. After using the subject method, the patient's proteinuria was reduced to 600-800 milligrams/24 hours. They have been using the method for 5 years.
(§1) For all of the above listed examples, after the initial few days of treatment, the patients underwent treatment once a week, each treatment day consisting of three infusions of insulin accompanied by ingestion of carbohydrates. The infusion device used to infuse the insulin was the BIONICA MD-110 pump. Typically there were ten pulses given over a period of one hour, and a rest period of one hour was taken between infusions of insulin. The form in which the carbohydrates were ingested changed from time to time and included eating foods of high glycemic index including but not limited to bread and cake. The patients' circulating glucose was measured once every thirty minutes by the finger stick method currently used by most diabetic patients. […]

The test system of assay [2] is patients suffering from senile dementia. Description: Senile dementia in patients treated with Hepatic Activation / the present invention. As to conditions: diabetic patients with senile dementia. From the text:
On many occasions patients who have been diabetics as well as having dementia have been treated with the method of the current invention. Dementia appears to be related to poor metabolism of glucose in the brain, which may well be the result of constricted flow of blood. This poor metabolism is at least in part the cause of the dementia.
A diabetic who was suffering from advanced senile dementia was placed in a nursing home because of excessive confusion, weakness, disorientation and lack of memory. Because the nursing home was not keeping up the strict four shot regimen needed by the patient for their diabetic blood sugar control, the patient's children removed the patient from the nursing home. The attending doctor recommended Hepatic Activation. Once the patient was activated, they returned to a totally independent living style.
For all of the above listed examples, after the initial few days of treatment, the patients underwent treatment once a week, each treatment day consisting of three infusions of insulin accompanied by ingestion of carbohydrates. The infusion device used to infuse the insulin was the BIONICA MD-110 pump. […] The patients' circulating glucose was measured once every thirty minutes by the finger stick method currently used by most diabetic patients. […]

In assay [3] the test system is type 2 diabetic male suffering with autonomic neuropathy. In words: Case report: elevated blood pressure with autonomic neuropathy treated with the subject method. Conditions: before treatment 200/120 despite intensive insulin therapy; 5 years of treatment. From the text:
An older type 2 diabetic […] suffering with autonomic neuropathy had very elevated blood pressure readings of 200/120 despite a rigorous program to regulate their circulating glucose using intensive insulin therapy of 3 to 4 subcutaneous insulin injections daily. As a result of using the subject method, their blood pressure decreased to 120/80. They have been using the method for 5 years.
(§2) For all of the above listed examples, after the initial few days of treatment, the patients underwent treatment once a week, each treatment day consisting of three infusions of insulin accompanied by ingestion of carbohydrates. The infusion device used to infuse the insulin was the BIONICA MD-110 pump. Typically there were ten pulses given over a period of one hour, and a rest period of one hour was taken between infusions of insulin. The form in which the carbohydrates were ingested changed from time to time and included eating foods of high glycemic index including but not limited to bread and cake. The patients' circulating glucose was measured once every thirty minutes by the finger stick method currently used by most diabetic patients. […] Table 1 below summarizes by the above examples the number of units of insulin per pulse administered and the amount of glucose ingested for each series of pulses: […]

For assay [4], the system named is diabetic patients with neuropathy. In words: Case reports: diabetic neuropathy treated with the subject method. From the text: A middle-aged person with Type 1 diabetes for more than 22 years suffered from polyneuropathy. They had generalized pain and was unable to walk or even wear stockings because of the pain.
A middle-aged person with Type 1 diabetes for more than 30 years had severe peripheral neuropathy, was in constant pain below the knees and had difficulty sleeping at night. […] They have been using the treatment for eight years.
An elder type 2 diabetic patient had severe painful peripheral neuropathy to the point that they were unable to walk and used a wheelchair. […] Because of financial reasons, they stopped the therapy. As a result, the neuropathy returned, and they returned to using a wheelchair.
A middle-aged type 1 diabetic patient had severe neuropathy. They were a parent of two children who was bed-ridden with autonomic neuropathy before using the subject method two years ago. Their muscles had atrophied, they could not digest their food, they had been told that their nerves were dying inside them as a result of their diabetes. They stated that if they had not have two children, they would have taken their life. They had to quit their job, went on disability and was in an out of the hospital very often. They had welts on their head causing hair loss. They had no sensation in their feet, they had constant nausea, and they couldn't sleep at night because of the pain. They had insulin absorption problems and tried all different ways to improve the absorption of insulin into their body. For a number of years they injected themself intramuscularly because they felt that they obtained the best absorption of insulin that way. […] They have not been in the hospital since. […]
For all of the above listed examples, after the initial few days of treatment, the patients underwent treatment once a week, each treatment day consisting of three infusions of insulin accompanied by ingestion of carbohydrates. […] The patients' circulating glucose was measured once every thirty minutes by the finger stick method currently used by most diabetic patients. […]

Assay [5] in a line: Circulating glucose by finger stick during insulin pulse treatments. Conditions: during the first treatment; all examples; finger stick every thirty minutes.
Source text: as §2

Assay [6] concerns diabetic patients with heart disease. In words: Case reports: diabetic heart disease treated with the subject method.
Source text: A middle-aged person with type 2 diabetes for 17 years was suffering from severe dilated cardiomyopathy (ejection fraction 14-19%). They were placed on the list to receive a heart transplant prior to starting treatment with the subject method. […] The patient has been receiving treatment for 10 years and is still off the heart transplant list. Their ejection fraction is currently 29-32%.
A middle-aged type 2 diabetic patient had severe heart disease including congestive heart failure and severe artereosclerotic heart disease. The patient was scheduled for heart surgery but because of their poor condition, surgeons refused to operate.
An older type 1 diabetic patient who was diabetic was scheduled for a coronary artery by-pass graft to correct their diabetes related heart disease. The surgeons were reluctant to operate in the condition they were in because of their advanced diabetes related arteriosclerosis. They were scheduled for a single vessel graft. […] They continuing using the subject method for several years after the surgery with no further deterioration in their diabetes related heart disease.
as §2

In assay [7] the test system is type 1 DM patients with nephropathy. In words: 18-month multi-center, prospective, controlled study of CIIIT on progression of diabetic nephropathy. On the procedure:
as §1, with “A study was conducted to assess the effects of Chronic Intermittent Intravenous Insulin Therapy (CIIIT) on the progression of diabetic nephropathy in patients with type 1 diabetes mellitus (DM). This 18-month multi-center, prospective, controlled study involved 49 type 1 DM patients with nephropathy who were following the Diabetes Control and Complications Trial (DCCT) intensive therapy (IT) regimen. Of these, 26 patients formed the control group C, which continued on IT, while 23 patients formed the treatment group (T) and underwent, in addition to IT, weekly CIIIT. […] For” for “For”

In assay [8] the test system is diabetic patients with retinopathy. In words: Case reports: retinopathy treated with the subject method.
Source text: A middle-aged person with type 1 diabetes for 38 years suffered from macular degeneration (retinopathy). They were unable to drive at night. […] The patient has been receiving treatment for 4 years.
A middle-aged type 2 diabetic patient had proliferative diabetic retinopathy with severe bleeding. Multiple photocoagulation scars made additional photocoagulation impossible. […] The patient has been using the subject method for 5 years, and they have had no further bleeding of the retina and no further photocoagulation.
as §1

In assay [9] the test system is diabetic patients with leg ulcers. Description: Case reports: diabetes related leg ulcers treated with the subject method. As to conditions: ulcers not responding to any available therapy, Examples 10 and 11; listed as subject method.
Source text: An older type 2 diabetic had one amputated leg as a result of diabetes related ulcers on that leg. They had developed ulcers on the other leg that would not respond to any available therapy and was in danger of losing the other leg to amputation. […] This patient used the subject method for several more years, and no additional ulcers formed.
A middle-aged type 1 diabetic patient had developed severe ulcers on both legs, which would not heal with any available treatment. […] The patient has been using the subject method now for 13 years.
as §1

[10] abbreviates: type 1 patient with severe autonomic neuropathy, Example 14.

“Also recorded” adds a separate entry of the source.

On to insulin [CIIIT], for which, in assay [1], the proteinuria is 600-800 milligrams/24 hours. For the same substance, in [2] (listed as Hepatic Activation), the senile dementia symptoms entry is “significant improvement in their motor skills, memory, and cognitive function”. The senile dementia symptoms result in assay [2] (listed as present invention) is “clearly shown improvement in confusion, weakness, disorientation, cognitive function and lack of memory”. The blood pressure in [3] is reported as 120/80. For the same substance, the “neuropathic pain after treatment” value in assay [4] (single patients with polyneuropathy / peripheral neuropathy, listed as subject method) is “the pain has been reduced to the point where the person enjoys rigorous exercise; also recorded: no longer takes pain medication and has no twinges of pain in their legs; also recorded: the pain had subsided to the point where they no longer used a wheelchair”. In [4] (setting [10]), the gastroparesis result was “Her gastroparesis was reversed” and the numbness in legs result is listed as “The numbness in their legs has gone away”. Further, the “rise of circulating glucose levels” value in assay [5] lay within 100 to 150 mg/dL. For the same substance, the postoperative recovery result in [6] (after by-pass surgery, Examples 6 and 8, listed as subject method) is “normal postoperative recovery”. Besides, the insulin intake in assay [6] (same patient, Example 4, before treatment 150 units a day) was 24-26 units/day. In addition, the “cardiac condition / need or fitness for heart surgery” value in [6] (single patients, Examples 4, 6, 8, listed as subject method) was “no longer required a heart transplant; also recorded: could withstand 4-vessel by-pass surgery; also recorded: their condition improved to the point where the doctors performed two instead of one grafts”. The ejection fraction in [6] (type 2 diabetic patient, severe dilated cardiomyopathy, before treatment 14-19%, after 10 years of treatment) is 29-32%. Further, the “progression of diabetic nephropathy” value in [7] (CIIIT added to IT in type 1 DM patients with overt nephropathy) was “markedly reduce the progression of diabetic nephropathy”. For the same substance, the “rate of CrCl decline” value in assay [7] (type 1 DM patients with nephropathy, 18 months, T group (weekly CIIIT added to IT, 23 patients) vs C group (IT alone, 26 patients), P=0.0343) came to 2.21±1.62 ml/min/yr. The eyesight result in assay [8] (type 1 person, macular degeneration (retinopathy), unable to drive at night before treatment, 4 years of treatment) is reported as “eyesight improved to the point where night driving was no longer a concern”. Further, the retinal bleeding entry in assay [8] (type 2 male, proliferative diabetic retinopathy with severe bleeding, 5 years of treatment) was “the bleeding stopped, and there was no further deterioration of the retina”. Further, in assay [9], the leg ulcers entry was “the ulcers on their second leg healed; also recorded: the ulcers healed and have never returned”.
